Test [1] has as its target Histone deacetylase. Format: cell-based, Homo sapiens. Conditions: hela; call rule not given here.
Test [2] has as its target Acetylcholinesterase (Electrophorus electricus, UniProt O42275). In words: Inhibition of electric eel AChE.
Test [3] deals with Cholinesterase (Equus caballus, UniProt P81908). In words: Inhibition of equine serum BChE. It counts as cell-free.
Test [4] in a line: Selectivity index, ratio of IC50 for equine serum BChE to IC50 for electric eel AChE.

As a reminder, the IC50 is the concentration at which inhibition is half-maximal.

Some results are limits rather than exact numbers.

Acetylcholinesterase, sequence (O42275 whole entry): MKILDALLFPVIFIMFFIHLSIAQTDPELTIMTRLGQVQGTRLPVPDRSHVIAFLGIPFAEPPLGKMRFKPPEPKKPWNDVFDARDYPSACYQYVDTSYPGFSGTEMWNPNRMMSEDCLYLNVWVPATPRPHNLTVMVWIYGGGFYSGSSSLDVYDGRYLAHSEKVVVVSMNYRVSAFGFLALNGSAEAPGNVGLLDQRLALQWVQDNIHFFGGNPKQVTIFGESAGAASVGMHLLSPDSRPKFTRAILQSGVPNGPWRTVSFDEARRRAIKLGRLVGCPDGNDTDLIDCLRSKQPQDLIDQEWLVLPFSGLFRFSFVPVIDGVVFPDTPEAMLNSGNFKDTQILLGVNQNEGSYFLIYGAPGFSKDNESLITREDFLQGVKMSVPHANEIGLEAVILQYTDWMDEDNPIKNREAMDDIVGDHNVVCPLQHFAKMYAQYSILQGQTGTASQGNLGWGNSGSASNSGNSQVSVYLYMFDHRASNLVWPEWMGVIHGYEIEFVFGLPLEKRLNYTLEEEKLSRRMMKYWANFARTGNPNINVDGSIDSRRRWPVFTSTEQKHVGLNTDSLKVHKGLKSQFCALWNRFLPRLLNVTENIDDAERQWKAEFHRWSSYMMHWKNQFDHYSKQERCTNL
Cholinesterase, sequence (P81908 whole entry): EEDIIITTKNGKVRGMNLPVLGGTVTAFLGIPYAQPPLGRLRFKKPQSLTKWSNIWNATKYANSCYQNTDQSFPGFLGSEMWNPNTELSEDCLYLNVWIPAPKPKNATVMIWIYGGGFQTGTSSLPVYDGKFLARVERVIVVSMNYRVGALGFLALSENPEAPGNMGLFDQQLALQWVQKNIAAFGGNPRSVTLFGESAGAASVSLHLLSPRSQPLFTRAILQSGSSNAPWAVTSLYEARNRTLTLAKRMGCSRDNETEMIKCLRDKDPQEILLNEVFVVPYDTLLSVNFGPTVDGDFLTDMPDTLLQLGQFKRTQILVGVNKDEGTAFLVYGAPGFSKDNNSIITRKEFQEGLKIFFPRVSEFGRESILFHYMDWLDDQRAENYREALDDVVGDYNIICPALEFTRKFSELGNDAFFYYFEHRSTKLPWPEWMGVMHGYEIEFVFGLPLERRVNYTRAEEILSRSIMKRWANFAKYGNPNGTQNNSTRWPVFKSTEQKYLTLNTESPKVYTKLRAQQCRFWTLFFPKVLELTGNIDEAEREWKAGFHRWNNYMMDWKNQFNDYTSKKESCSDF

As for `O=C(NO)c1ccc(CNCC2CCN(Cc3ccccc3)CC2)cc1`, the IC50 stood at 1.42 µM in test [1], 6.03 µM in test [2] (read-out: IC50) and 13.2 µM in test [3] (read-out: IC50).

Turning to `COc1cc(CCC(=O)NO)ccc1C(=O)NCC1CCN(Cc2ccccc2)CC1`, the Ratio IC50 in test [4] was > 10. For the same compound, the results for the IC50 in test [1], in test [2] (read-out: IC50) and in test [3] were 0.17 µM, 6.89 µM and “Not Active”, respectively.

As to `Nc1ccccc1NC(=O)c1cccc(S(=O)(=O)NCC2CCN(Cc3ccccc3)CC2)c1`, the IC50 came out at 1.28 µM in test [1], 7.41 µM in test [2] (read-out: IC50) and 5.23 µM in test [3] (read-out: IC50).

In the case of `O=C(/C=C/c1cccc(C(=O)NCC2CCN(Cc3ccccc3)CC2)c1)NO`, the IC50 is 0.067 µM in test [1], 14.6 µM in test [2] (read-out: IC50) and “Not Active” in test [3].

For the compound `O=C(CCc1ccc(C(=O)NO)cc1)NCC1CCN(Cc2ccccc2)CC1`, the IC50 was > 10 µM in test [1], “Not Active” in test [2] and “Not Active” in test [3].

On to `O=C(CCc1ccc(C(=O)NCC2CCN(Cc3ccccc3)CC2)cc1)NO`, for which the results for the half-inhibitory concentration (IC50) in test [1], in test [2] and in test [3] were 1 µM, “Not Active” and “Not Active”, respectively.

For the compound `O=C(NO)c1ccc(C(=O)NCC2CCN(Cc3ccccc3)CC2)cc1`, the IC50 in test [1] is 0.14 µM; in test [2] (read-out: IC50), 39.7 µM; in test [3] (read-out: IC50), 3.28 µM.

`O=C(CCCCCCC(=O)NCC1CCN(Cc2ccccc2)CC1)NO`: the IC50 in test [1] is 0.59 µM; in test [2], “Not Active”; in test [3] (read-out: IC50) it was 1.62 µM.

On to `Nc1ccccc1NC(=O)CCCCCCC(=O)NCC1CCN(Cc2ccccc2)CC1`, for which the IC50 in test [1] was > 10 µM; in test [2], “Not Active”; in test [3] it was “Not Active”.

On to `Nc1ccccc1NC(=O)CCc1ccc(C(=O)NCC2CCN(Cc3ccccc3)CC2)cc1`, for which the IC50 in test [1] amounted to 0.46 µM; in test [2] (read-out: IC50), 9.13 µM; in test [3] (read-out: IC50) it was 13.4 µM.

In the case of `O=C(/C=C/c1ccc(C(=O)NCC2CCN(Cc3ccccc3)CC2)cc1)NO`, the Ratio IC50 in test [4] was > 10. In addition, the figures for the IC50 in test [1], in test [2] (read-out: IC50) and in test [3] were 0.28 µM, 8.18 µM and “Not Active”, respectively.

Turning to `Nc1ccccc1NC(=O)c1cccc(C(=O)NCC2CCN(Cc3ccccc3)CC2)c1`, the IC50 in test [1] came to 2.13 µM; in test [2] (read-out: IC50) it was 32.6 µM; in test [3] (read-out: IC50), 7.96 µM.

With `O=C(CCCCCCCC(=O)NCC1CCN(Cc2ccccc2)CC1)NO`, the half-inhibitory concentration (IC50) in test [1] came to 0.43 µM; in test [2] (read-out: IC50), 26.2 µM; in test [3] (read-out: IC50) it was 13.7 µM.

As for `O=C(/C=C/c1ccc(C(=O)NO)cc1)NCC1CCN(Cc2ccccc2)CC1`, the Ratio IC50 in test [4] was > 10. Further, the IC50 in test [1] is 2.1 µM; in test [2] (read-out: IC50) it was 4.07 µM; in test [3], “Not Active”.

Take `Nc1ccccc1NC(=O)CCCCCC(=O)NCC1CCN(Cc2ccccc2)CC1`: the IC50 in test [1] is > 10 µM; in test [2] (read-out: IC50), 7.06 µM; in test [3] (read-out: IC50) it was 6.19 µM.

In the case of `O=C(CCCCCC(=O)NCC1CCN(Cc2ccccc2)CC1)NO`, the IC50 in test [1] was > 10 µM; in test [2] (read-out: IC50), 32.8 µM; in test [3] it was “Not Active”.

Turning to `Nc1ccccc1NC(=O)CCc1cccc(C(=O)NCC2CCN(Cc3ccccc3)CC2)c1`, the results for the IC50 in test [1], in test [2] (read-out: IC50) and in test [3] (read-out: IC50) were 1.2 µM, 9.97 µM and 9.49 µM, respectively.

In the case of `Nc1ccccc1NC(=O)CCCCCCCC(=O)NCC1CCN(Cc2ccccc2)CC1`, the IC50 was 1.14 µM in test [1], 11.5 µM in test [2] (read-out: IC50) and 13.8 µM in test [3] (read-out: IC50).

Turning to `Nc1ccccc1NC(=O)/C=C/c1cccc(C(=O)NCC2CCN(Cc3ccccc3)CC2)c1`, the half-maximal inhibitory concentration (IC50) is 1.62 µM in test [1], “Not Active” in test [2] and “Not Active” in test [3].

For `O=C(NO)c1ccc(S(=O)(=O)NCC2CCN(Cc3ccccc3)CC2)cc1`, in test [4], the Ratio IC50 was > 10. Also, the figures for the IC50 in test [1], in test [2] (read-out: IC50) and in test [3] were 0.45 µM, 3.22 µM and “Not Active”, respectively.

As to `Nc1ccccc1NC(=O)/C=C/c1ccc(C(=O)NCC2CCN(Cc3ccccc3)CC2)cc1`, the IC50 was 0.18 µM in test [1], 13.8 µM in test [2] (read-out: IC50) and “Not Active” in test [3].

`Nc1ccccc1NC(=O)c1ccc(S(=O)(=O)NCC2CCN(Cc3ccccc3)CC2)cc1`: the Ratio IC50 in test [4] was > 102. Besides, the IC50 in test [1] is > 10 µM; in test [2] (read-out: IC50), 0.49 µM; in test [3], “Not Active”.

On to `Nc1ccccc1NC(=O)c1ccc(CNCC2CCN(Cc3ccccc3)CC2)cc1`, for which the IC50 in test [1] is > 10 µM; in test [2] (read-out: IC50), 9.84 µM; in test [3] (read-out: IC50), 12.6 µM.

Turning to `Nc1ccccc1NC(=O)c1ccc(/C=C/C(=O)NCC2CCN(Cc3ccccc3)CC2)cc1`, in test [4], the Ratio IC50 was > 10. Moreover, the IC50 in test [1] was > 10 µM; in test [2] (read-out: IC50), 2.12 µM; in test [3] (read-out: IC50) it was 15.6 µM.

Regarding `Nc1ccccc1NC(=O)c1ccc(CCC(=O)NCC2CCN(Cc3ccccc3)CC2)cc1`, the IC50 was > 10 µM in test [1], 12.4 µM in test [2] (read-out: IC50) and “Not Active” in test [3].

For the compound `O=C(NO)c1cccc(C(=O)NCC2CCN(Cc3ccccc3)CC2)c1`, the half-maximal inhibitory concentration (IC50) in test [1] is 0.8 µM; in test [2], “Not Active”; in test [3], “Not Active”.

For the compound `COc1cc(/C=C/C(=O)NO)ccc1C(=O)NCC1CCN(Cc2ccccc2)CC1`, the results for the IC50 in test [1], in test [2] (read-out: IC50) and in test [3] (read-out: IC50) were 0.02 µM, 24.6 µM and 25.2 µM, respectively.

Consider `O=C(NO)c1cccc(S(=O)(=O)NCC2CCN(Cc3ccccc3)CC2)c1`, for which the values for the IC50 in test [1], in test [2] (read-out: IC50) and in test [3] were 6.8 µM, 19.2 µM and “Not Active”, respectively.

As to `COc1cc(CCC(=O)Nc2ccccc2N)ccc1C(=O)NCC1CCN(Cc2ccccc2)CC1`, the IC50 was > 10 µM in test [1], 31.3 µM in test [2] (read-out: IC50) and 10.6 µM in test [3] (read-out: IC50).

Turning to `COc1cc(/C=C/C(=O)Nc2ccccc2N)ccc1C(=O)NCC1CCN(Cc2ccccc2)CC1`, the half-maximal inhibitory concentration (IC50) in test [1] was 1.25 µM; in test [2] (read-out: IC50), 8.89 µM; in test [3] (read-out: IC50), 6.56 µM.

For `O=C(CCc1cccc(C(=O)NCC2CCN(Cc3ccccc3)CC2)c1)NO`, the IC50 in test [1] was 0.47 µM; in test [2] it was “Not Active”; in test [3], “Not Active”.

Values taken from ChEMBL document CHEMBL5223174, “Design, synthesis, and biological evaluation of novel N-Benzyl piperidine derivatives as potent HDAC/AChE inhibitors for Alzheimer's disease” (Bioorg Med Chem, 2023).
